Data reported in patent US8232284B2, “Heteroaryloxy quinazoline derivative” (MSD K. K., priority 2007, dated 2012).
Where a name gives a salt, the structure may show the parent alone.

Molecular target: T1, recombinant human liver GK (Homo sapiens, UniProt P35557)
T1 construct: made in house; host or cells: E. coli
T1 sequence (P35557 1-466 isoform P35557-2): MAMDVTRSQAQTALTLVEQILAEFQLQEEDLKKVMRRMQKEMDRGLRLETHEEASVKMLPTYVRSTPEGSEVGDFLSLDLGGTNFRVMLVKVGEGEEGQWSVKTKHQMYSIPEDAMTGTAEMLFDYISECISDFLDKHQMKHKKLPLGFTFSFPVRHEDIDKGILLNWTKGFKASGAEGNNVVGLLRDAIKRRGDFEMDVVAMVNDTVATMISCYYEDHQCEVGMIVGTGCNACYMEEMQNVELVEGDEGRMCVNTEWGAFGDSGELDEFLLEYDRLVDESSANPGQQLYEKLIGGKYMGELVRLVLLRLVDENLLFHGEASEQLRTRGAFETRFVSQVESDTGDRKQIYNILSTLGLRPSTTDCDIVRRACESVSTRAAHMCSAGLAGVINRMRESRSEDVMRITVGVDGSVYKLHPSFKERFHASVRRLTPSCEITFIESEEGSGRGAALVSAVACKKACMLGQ
Assay: Glucokinase-activating effect (Thio-NADH coupled assay with G6PDH, 2.5 mM glucose)
Type: biochemical
Conditions: final glucose concentration 2.5 mM, 30° C.; for EC50: read-out: EC50; for Emax: OD level of DMSO control set as 100%
From the text: The excellent glucokinase-activating effect of the compounds of the formula (I) may be determined by a method described in literature (for example, Diabetes, Vol. 45, pp. 1671-1677, 1996), or in accordance with it.
The glucokinase activity may be determined not by directly measuring glucose-6-phosphate but by measuring the level of Thio-NADH, which is produced when a reporter enzyme, glucose-6-phosphate dehydrogenase produces phosphogluconolactone from glucose-6-phosphate, and based on the level, the degree of glucokinase activation by the compound tested may be determined
In this assay, used was a recombinant human liver GK, which was expressed by E. coli as a FLAG fusion protein therein and was purified by ANTIFLAG M2 AFFINITY GEL (Sigma).
Using a flat-bottomed 96-well plate, the assay was carried out at 30° C. 69 μl of an assay buffer (25 mM Hepes Buffer/pH=7.2, 2 mM MgCl2, 1 mM ATP, 0.5 mM TNAD, 1 mM dithiothreitol) was put into the plate, and 1 μl of a DMSO solution of the compound or DMSO alone as a control was added thereto. Next, 20 μl of an enzyme mixture (FLAG-GK, 20 U/ml G6PDH) cooled in ice was added to it, and 10 μl of a substrate, 25 mM glucose was added to it, and the reaction was initiated (final glucose concentration=2.5 mM).
After the start of the reaction, the increase in the absorbance at 405 nm was measured for 12 minutes at intervals of 30 seconds, and the increase for the first 5 minutes was used for assessing the compound tested. FLAG-GK was added so that the absorbance increase after 5 minutes in the presence of 1% DMSO could be from 0.04 to 0.06.
The OD level of the DMSO control was set as 100%; and the OD level of the test compound at different concentrations was determined. From the OD level at each concentration, Emax (%) and EC50 (μM) were computed and used as the index of the GK-activating potency of the compound.
The comparative test was conducted to compare the compound of example 18, 31 and 32 in this invention with the compound (A) in the patent document 1. The test method in vitro was similar to pharmacological experiment 1 (glucokinase-activating effect).

EC50 [nM]	Emax [%]	SMILES
80	–	CN(C)CCOc1cnc(Oc2ccc3ncnc(Nc4ccn(C)n4)c3c2)c(Cl)c1 [Example 1, 6-({3-chloro-5-[2-(dimethylamino)ethoxy]pyridin-2-yl}oxy)-N-(1-methyl-1H-pyrazol-3-yl)quinazoline-4-amine]
420	–	CN(C)CCOc1cnc(Cl)c(Oc2ccc3ncnc(Nc4ccn(C)n4)c3c2)c1 [Example 2, 6-({2-chloro-5-[2-(dimethylamino)ethoxy]pyridin-3-yl}oxy)-N-(1-methyl-1H-pyrazol-3-yl)quinazoline-4-amine]
1740	918	CN(C)CCOc1ccc(Oc2ccc3ncnc(Nc4ccn(C)n4)c3c2)cn1 [Example 3, 6-({6-[2-(dimethylamino)ethoxy]pyridin-3-yl}oxy)-N-(1-methyl-1H-pyrazol-3-yl)quinazoline-4-amine]
380	–	CN(C)CCCOc1ccc(Oc2ccc3ncnc(Nc4ccn(C)n4)c3c2)nc1 [Example 4, 6-({5-[3-(dimethylamino)propoxy]pyridin-2-yl}oxy)-N-(1-methyl-1H-pyrazol-3-yl)quinazoline-4-amine]
260	–	CC(C)NCCOc1ccc(Oc2ccc3ncnc(Nc4ccn(C)n4)c3c2)nc1 [Example 5, 6-({5-[2-(isopropylamino)ethoxy]pyridin-2-yl}oxy)-N-(1-methyl-1H-pyrazol-3-yl)quinazoline-4-amine]
6930	695	CN(C)CCOc1ncc(Oc2ccc3ncnc(Nc4ccn(C)n4)c3c2)cn1 [Example 7, 6-({2-[2-(dimethylamino)ethoxy]pyrimidin-5-yl}oxy)-N-(1-methyl-1H-pyrazol-3-yl)quinazoline-4-amine]
1320	–	CN(C)CCOc1cnc(Oc2ccc3ncnc(Nc4ccn(C)n4)c3c2)nc1 [Example 8, 6-({5-[2-(dimethylamino)ethoxy]pyrimidin-2-yl}oxy)-N-(1-methyl-1H-pyrazol-3-yl)quinazoline-4-amine]
40	–	CCNCCCOc1cnc(Oc2ccc3ncnc(Nc4ccn(C)n4)c3c2)c(Cl)c1 [Example 20, 6-({3-chloro-5-[3-(ethylamino)propoxy]pyridin-2-yl}oxy)-N-(1-methyl-1H-pyrazol-3-yl)quinazoline-4-amine hydrochloride]
50	–	Cn1ccc(Nc2ncnc3ccc(Oc4ncc(OC5CNC5)cc4Cl)cc23)n1 [Example 23, 6-{[5-(azetidin-3-yloxy)-3-chloropyridin-2-yl]oxy}-N-(1-methyl-1H-pyrazol-3-yl)quinazoline-4-amine hydrochloride]
230	–	CCN1CC(Oc2cnc(Oc3ccc4ncnc(Nc5ccn(C)n5)c4c3)c(F)c2)C1 [Example 25, 6-({5-[(1-ethylazetidin-3-yl)oxy]-3-fluoropyridin-2-yl}oxy)-N-(1-methyl-1H-pyrazol-3-yl)quinazoline-4-amine hydrochloride]
70	–	Cc1cnc(Nc2ncnc3ccc(Oc4ncc(OCCN(C)C)cc4C)cc23)cn1 [Example 34, 6-({5-[2-(dimethylamino)ethoxy]-3-methylpyridin-2-yl}oxy)-N-(5-methylpyrazin-2-yl)quinazoline-4-amine hydrochloride]
100	–	Cc1cnc(Nc2ncnc3ccc(Oc4ncc(OCCN(C)C)cc4Cl)cc23)cn1 [Example 35, 6-({3-chloro-5-[2-(dimethylamino)ethoxy]pyridin-2-yl}oxy)-N-(5-methylpyrazin-2-yl)quinazoline-4-amine]
380	–	Cc1cnc(Nc2ncnc3ccc(Oc4ccc(OCCNC(C)C)cn4)cc23)cn1 [Example 37, 6-({5-[2-(isopropylamino)ethoxy]pyridin-2-yl}oxy)-N-(5-methylpyrazin-2-yl)quinazoline-4-amine]
350	–	Cc1cnc(Nc2ncnc3ccc(Oc4ncc(OCCNC(C)C)cc4F)cc23)cn1 [Example 40, 6-({3-fluoro-5-[2-(isopropylamino)ethoxy]pyridin-2-yl}oxy)-N-(5-methylpyrazin-2-yl)quinazoline-4-amine hydrochloride]
